From patent publication US20070207971A1 (priority 2006, published 2007)
pIC50: −log10 of the molar value.

Legend:
[1] = target: T1, Athrobacter ureafaciens neuraminidase (Paenarthrobacter ureafaciens, UniProt Q5W7Q2); assay: Western blot analysis of covalent binding (biotinylation) of neuraminidase; details: 200 μM, 4° C., ammonium acetate buffer 100 mM; bands of 88, 66 and 52 KDa
T1 sequence (Q5W7Q2 39-990): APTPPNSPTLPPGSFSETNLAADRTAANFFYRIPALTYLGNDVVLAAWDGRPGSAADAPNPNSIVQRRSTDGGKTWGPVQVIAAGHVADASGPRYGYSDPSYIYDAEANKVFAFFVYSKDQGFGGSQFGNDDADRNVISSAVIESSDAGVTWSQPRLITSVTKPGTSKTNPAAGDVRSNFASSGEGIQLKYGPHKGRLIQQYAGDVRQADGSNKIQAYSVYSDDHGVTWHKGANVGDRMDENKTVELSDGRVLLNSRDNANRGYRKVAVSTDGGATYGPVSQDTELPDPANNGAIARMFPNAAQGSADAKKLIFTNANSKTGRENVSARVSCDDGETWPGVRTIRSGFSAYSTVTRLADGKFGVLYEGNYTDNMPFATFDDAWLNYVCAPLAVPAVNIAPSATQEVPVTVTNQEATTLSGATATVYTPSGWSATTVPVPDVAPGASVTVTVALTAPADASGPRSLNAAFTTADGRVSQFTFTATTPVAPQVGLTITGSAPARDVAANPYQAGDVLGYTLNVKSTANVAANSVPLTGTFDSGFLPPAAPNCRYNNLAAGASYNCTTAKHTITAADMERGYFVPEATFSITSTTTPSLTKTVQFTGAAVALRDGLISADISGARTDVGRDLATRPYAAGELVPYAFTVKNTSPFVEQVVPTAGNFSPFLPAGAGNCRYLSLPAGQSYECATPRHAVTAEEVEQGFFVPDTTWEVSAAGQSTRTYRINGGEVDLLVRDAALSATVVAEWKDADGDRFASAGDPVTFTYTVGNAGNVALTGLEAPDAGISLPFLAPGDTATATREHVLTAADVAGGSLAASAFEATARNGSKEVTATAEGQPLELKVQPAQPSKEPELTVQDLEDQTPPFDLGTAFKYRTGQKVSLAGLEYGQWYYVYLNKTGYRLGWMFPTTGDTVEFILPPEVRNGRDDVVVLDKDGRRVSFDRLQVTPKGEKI

[2] = target: Bovine serum albumin (BSA) (Bos taurus, UniProt P02769); assay: Western blot analysis, negative control protein; format: binding; details: BSA 0.65 μg/μl with 200 μM, 4° C.
[3] = target: T2, influenza A virus neuraminidase (Influenza A virus, UniProt P03470); assay: biochemical; format: biochemical, influenza A virus (A/WSN/33)
T2 construct: pre-incubated for 45 minutes with influenza A virus (A/WSN/33; 9×10^3 PFU); host or cells: whole virus particles (PFU-titred virus stock)

[4] = target: T1, Athrobacter ureafaciens neuraminidase; format: biochemical; details: pH 6.5
[5] = target: Clostridium perfringens neuraminidase (Clostridium perfringens, UniProt P10481); format: biochemical; details: pH 6.5
[6] = target: Vibro cholerae neuraminidase (Vibrio cholerae serotype O1, UniProt P0C6E9); assay: biochemical; format: biochemical; details: for inhibitory effect on neuraminidase activity: pH 6.5
[7] = test system: influenza A virus (A/WSN/33); assay: ELISA virus capture on streptavidin coated plate; format: binding
[8] = test system: Japanese encephalitis virus (JEV); assay: ELISA selective capturing experiment; format: binding; details: mixture of influenza A virus and JEV; anti-JEV antibody
influenza A virus = assay: ELISA capturing experiment with neuraminidase active site blocked by zanamivir; format: binding; details: compound 1 667 μM, zanamivir 67 μM pre-incubation 45 minutes, 9×10^3 PFU, optical density

Chain of Vibro cholerae neuraminidase (P0C6E9 25-781): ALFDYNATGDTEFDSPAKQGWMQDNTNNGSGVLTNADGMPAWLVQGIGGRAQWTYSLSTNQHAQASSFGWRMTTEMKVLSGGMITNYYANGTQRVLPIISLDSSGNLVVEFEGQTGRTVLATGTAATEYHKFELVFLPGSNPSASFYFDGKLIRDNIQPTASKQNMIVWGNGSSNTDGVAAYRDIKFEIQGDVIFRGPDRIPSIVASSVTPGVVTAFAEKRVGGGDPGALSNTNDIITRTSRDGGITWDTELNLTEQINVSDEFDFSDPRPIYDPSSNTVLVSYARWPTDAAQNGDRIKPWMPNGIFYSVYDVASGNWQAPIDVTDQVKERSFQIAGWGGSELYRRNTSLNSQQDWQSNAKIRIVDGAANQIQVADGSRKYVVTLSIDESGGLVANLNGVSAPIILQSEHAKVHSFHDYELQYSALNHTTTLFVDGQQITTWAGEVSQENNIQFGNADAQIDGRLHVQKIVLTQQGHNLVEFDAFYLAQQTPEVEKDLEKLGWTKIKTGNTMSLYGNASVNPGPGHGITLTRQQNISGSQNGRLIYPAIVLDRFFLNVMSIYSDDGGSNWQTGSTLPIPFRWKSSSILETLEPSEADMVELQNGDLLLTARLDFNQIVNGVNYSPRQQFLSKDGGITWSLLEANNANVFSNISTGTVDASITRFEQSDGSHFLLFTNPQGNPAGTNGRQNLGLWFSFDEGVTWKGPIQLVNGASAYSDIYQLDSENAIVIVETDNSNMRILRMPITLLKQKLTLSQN
T2 sequence (P03470 whole entry): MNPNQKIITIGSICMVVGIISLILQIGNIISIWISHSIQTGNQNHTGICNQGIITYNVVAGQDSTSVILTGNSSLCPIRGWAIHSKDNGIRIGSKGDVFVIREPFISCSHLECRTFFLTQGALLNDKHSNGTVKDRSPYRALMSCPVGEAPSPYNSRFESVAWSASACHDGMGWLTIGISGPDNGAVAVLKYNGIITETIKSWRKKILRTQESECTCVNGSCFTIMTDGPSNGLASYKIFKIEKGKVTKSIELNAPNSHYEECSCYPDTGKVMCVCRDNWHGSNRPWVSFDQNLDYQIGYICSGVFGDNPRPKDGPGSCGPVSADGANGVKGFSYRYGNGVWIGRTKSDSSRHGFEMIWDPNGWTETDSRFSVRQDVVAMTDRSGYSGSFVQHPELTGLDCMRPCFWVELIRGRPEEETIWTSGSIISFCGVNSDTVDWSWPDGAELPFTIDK
Chain of Clostridium perfringens neuraminidase (P10481 whole entry, looked up): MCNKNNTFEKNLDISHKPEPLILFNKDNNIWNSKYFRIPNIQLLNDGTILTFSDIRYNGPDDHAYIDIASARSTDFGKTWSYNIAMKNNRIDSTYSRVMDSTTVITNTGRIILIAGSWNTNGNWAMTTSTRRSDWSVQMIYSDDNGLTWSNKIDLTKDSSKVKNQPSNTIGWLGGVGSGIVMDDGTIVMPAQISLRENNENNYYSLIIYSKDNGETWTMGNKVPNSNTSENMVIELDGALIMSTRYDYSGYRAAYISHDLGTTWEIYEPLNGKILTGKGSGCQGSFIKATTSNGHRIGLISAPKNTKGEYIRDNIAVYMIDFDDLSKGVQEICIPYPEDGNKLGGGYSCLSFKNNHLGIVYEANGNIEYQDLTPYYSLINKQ
Chain of Bovine serum albumin (BSA) (P02769 25-607): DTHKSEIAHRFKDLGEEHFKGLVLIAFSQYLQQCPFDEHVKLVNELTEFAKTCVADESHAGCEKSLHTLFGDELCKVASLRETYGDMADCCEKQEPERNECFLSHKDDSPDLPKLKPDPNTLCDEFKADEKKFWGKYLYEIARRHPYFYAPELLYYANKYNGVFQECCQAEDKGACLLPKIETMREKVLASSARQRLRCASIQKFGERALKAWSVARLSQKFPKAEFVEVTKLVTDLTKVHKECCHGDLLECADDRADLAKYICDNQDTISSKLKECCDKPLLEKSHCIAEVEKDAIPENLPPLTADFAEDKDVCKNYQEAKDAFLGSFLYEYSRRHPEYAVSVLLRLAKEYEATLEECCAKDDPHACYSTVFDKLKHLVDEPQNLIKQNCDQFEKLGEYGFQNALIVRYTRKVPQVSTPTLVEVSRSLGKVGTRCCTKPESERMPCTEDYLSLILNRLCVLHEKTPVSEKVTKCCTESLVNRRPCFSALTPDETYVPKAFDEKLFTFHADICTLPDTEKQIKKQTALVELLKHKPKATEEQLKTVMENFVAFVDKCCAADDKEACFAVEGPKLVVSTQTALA

Structure (SMILES)	bands on the PVDF membrane (biotinylated neuraminidase isoenzymes) [1]	bands on the PVDF membrane [2]	pIC50 [3]	inhibitory effect on neuraminidase activity ([3]; pH 6.5)	inhibitory effect on neuraminidase activity [4]	inhibitory effect on neuraminidase activity [5]	pIC50 [6]	inhibitory effect on neuraminidase activity [6]	capture of influenza A virus on plate wells ([7]; 5 nmol on streptavidin coated plate, virus 3.8×10^2-970×10^2 PFU, anti-Flu A antibody detection)	capture of influenza A virus from a mixture with JEV ([7]; mixture of influenza A virus and JEV, anti-Flu A antibody)	capture of JEV from a mixture with influenza A virus [8]	capture of influenza A virus relative to influenza A virus pretreated with zanamivir (influenza A virus) [folds]
CC(=O)N[C@@H]1C(O)CC(Oc2ccc(NC(=O)CCC(=O)NCCCCCCNC(=O)CCCCC3SCC4NC(=O)NC43)cc2C(F)F)(C(=O)O)OC1[C@H](O)[C@H](O)CO (stereo partly drawn) [compound 1]	three bands	no band was observed	2.77	significant inhibitory effect	significant inhibitory effect	significant inhibitory effect	3.28	significant inhibitory effect	successfully captured influenza A virus	captured and detected	not JEV	14
CC(=O)N[C@H]1[C@H]([C@H](O)[C@H](O)CO)OC(C(=O)O)=C[C@@H]1N=C(N)N [zanamivir, reference compound]	–	–	–	–	only weak inhibitory effect	only weak inhibitory effect	–	only weak inhibitory effect	–	–	–	–
